This note sets out measurements from patent publication US7122359B2, “Active-site engineering of nucleotidylyltransferases and general enzymatic methods for the synthesis of natural and “unnatural” UDP- and TDP-nucleotide sugars” (priority 2000, dated 2006).

In assay [1] the target is T1, Salmonella enterica LT2 α-D-glucopyranosyl phosphate thymidylyltransferase (Ep) (Salmonella typhimurium, UniProt P26393).
T1 construct: made in house; host or cells: E. coli (E. coli-prfbA-C)
The experiment in a line: Ep-catalyzed conversion of α-D-hexopyranosyl phosphates and NTP to NDP-sugars, HPLC (FIG. 2). Type of assay: biochemical. The conditions noted are these: for utilization as NTP substrate by Ep: NTP substrate specificity; for activity as Ep substrate with TTP: 5 mM NTP, 10 mM sugar phosphate, 30 min, 37° C. The text has this: FIG. 2. E^p-Catalyzed Conversion of Substrates wherein superscript indicators (a)–(h) are as follows: (a) Percent conversion=[Ap/(AP+AT)]×100, where AP is the NDP-sugar product peak integration and AT represents the NTP peak integration. HRMS for all observed products reported in the supporting information. (b) Standard retention times: TDP, […]; TTP, 7.2 mm; UDP, 4.0 mm; UTP, 6.1 mm. (c) Commercially available. (d) Coelutes with commercially available standard. […] (f) Adjusted for the 2:1 α/β-28. (g) In contrast to previously published studies (See Lindquist, L; Kaiser, R.; Reeves, P. R.; Lindberg, A. A., Eur J. Biochem, 1993, 211, 763–770). (h) No products observed.
To evaluate the synthetic utility of purified thymidylyltransferase, Ep, α-D-hexopyranosyl phosphate, Mg^+2 and NTP were incubated at about 37° C. for about 30 min and the extent of product formation determined by HPLC. The results of these assays are illustrated in FIG. 2. Confirmation of product formation was based upon HPLC co-elution with commercially available standards and/or HPLC isolation and high resolution mass spectroscopy of the product. […] A reaction containing 5 mM NTP, 10 mM sugar phosphate and 5.5 mM MgCl2 in a total volume of 50 μL 50 mM potassium phosphate buffer, pH 7.5 at 37° C. was initiated by the addition of 3.52 U Ep (1 U=the amount of protein needed to produce 1 μmol TDP-D-glucose min^−1). The reaction was incubated with slow agitation for 30 min at 37° C., quenched with MeOH (50 μL), centrifuged (5 min, 14,000×g) and the supernatant was stored at −20° C. until analysis by HPLC. Samples (20 μL) were resolved on a Sphereclone 5 u SAX column (250×4.6 mm) fitted with a guard column (30×4.6 mm) using a linear gradient (20–60 mM potassium phosphate buffer, pH 5.0, 1.5 mL min^−1, A275 nm).

Assay [2] addresses T2, wild-type Ep (Salmonella typhimurium, UniProt P26393).
T2 construct: made in house; host or cells: E. coli (E. coli-prfbA-C)
As to the kind of experiment: Conversion of sugar phosphates by wild-type enzyme (FIG. 11). Type of assay: biochemical, Salmonella enterica LT2. The protocol:
FIG. 11. Percent conversion of sugar phosphates according to the present invention by wild-type and mutant enzymes. The alterations from native substrate (Glc-1-P,1) are highlighted in red. For the mutant pool, mutants Asp41Asn, Glu62Asp, Thr201A and Trp224His were pooled, concentrated and an aliquote constituting 60 μg of each mutant (corresponding to 3.5U Ep) was utilized for the assay.
Percent conversion was determined as described in Jiang, J., Biggins, J. B. & Thorson, J. S. A General Enzymatic Method for the Synthesis of Natural and “Unnatural” UDP- and TDP-Nucleotide Sugars. J. Am. Chem. Soc. 122, 6803–6804 (2000).
Assays for product formation and steady state kinetics were accomplished using conditions similar to those described. in Jiang, J., Biggins, J. B. & Thorson, J. S. A General Enzymatic Method for the Synthesis of Natural and “Unnatural” UDP- and TDP-Nucleotide Sugars. J. Am. Chem. Soc. 122, 6803-6804 (2000). For the mutant pool assays, an aliquot which contained an eqimolar ratio of each mutant (60 μg) was utilized.

Assay [3] concerns the target T1, Salmonella enterica LT2 α-D-glucopyranosyl phosphate thymidylyltransferase (Ep). As to the kind of experiment: Ep-catalyzed conversion of aminodeoxy/acetamidodeoxy sugar phosphates with inorganic pyrophosphatase, HPLC (FIG. 4). Type of assay: biochemical. The settings on record: 2.5 mM NTP, 5.0 mM sugar phosphate, 10 U inorganic pyrophosphatase, 30 min, 37° C. The method, then: To evaluate the synthetic utility of thymidylyl-transferase, purified Ep, α-D-glucopyranosyl phosphate, Mg^+2, NTP and inorganic pyrophosphatase were incubated at 37° C. for 30 min and the extent of product formation determined by HPLC. The inorganic pyrophosphatase was included to drive the reaction forward. A reaction containing 2.5 mM NTP, 5.0 mM sugar phosphate, 5.5 mM MgCl2 and 10 U inorganic pyrophosphatase in a total volume of 50 μL 50 mM potassium phosphate buffer, pH 7.5 at 37° C. was initiated by the addition of 3.52 U Ep (1 U=the amount of protein needed to produce […] TDP-D-glucose min^−1). The reaction was incubated with slow agitation for 30 min at 37° C., quenched with MeOH (50 μL), centrifuged (5 min, 14,000×g) and the supernatant was stored at −20° C. until analysis by HPLC. Samples (30 μL) were resolved on a Sphereclone 5u SAX column (150×4.6 mm) fitted with a SecurityGuard ™ cartridge (Phenomenex; Torrance, Calif.) using a linear gradient (50–200 mM potassium phosphate buffer, pH 5.0, 1.5 mL min^−1, A275 nm).
The results of these assays are illustrated in FIG. 4. For each assay, confirmation of product formation was based upon high resolution mass spectroscopy of HPLC-isolated products and, also in some cases, HPLC co-elution with commercially available standards.
A reaction containing 2.5 mM NTP, 5.0 mM sugar phosphate, 5.5 mM MgCl2 and 10 U inorganic pyrophosphatase in a total volume of 50 μL 50 mM potassium phosphate buffer, pH 7.5 at 37° C. was initiated by the addition of 3.52 U Ep (1 U=the amount of protein needed to produce 1 μmol TDP-α-D-glucose min^−1) The reaction was incubated with slow agitation for 30 min at 37° C., quenched with MeOH (50 μL), centrifuged (5 min, 14,000×g) and the supernatant was stored at −20° C. until analysis by HPLC. Samples (30 μL) were resolved on a Sphereclone 5u SAX column (250×4.6 mm) fitted with a guard column (30×4.6 mm) using a linear gradient (50–200 mM potassium phosphate buffer, pH 5.0, 1.5 mL min^−1, A275 nm).

Entries after “also recorded” stand apart in the source; their conditions may differ.

For `Nc1ccn([C@@H]2O[C@H](COP(=O)(O)OP(=O)(O)OP(=O)(O)O)[C@@H](O)[C@H]2O)c(=O)n1` [CTP, reference compound], in assay [1], the “utilization as NTP substrate by Ep” value is “not and not accepted”. The same measure, in the same setting: in the case of `O=c1ccn([C@@H]2O[C@H](COP(=O)(O)OP(=O)(O)OP(=O)(O)O)[C@@H](O)[C@H]2O)c(=O)[nH]1` [UTP, reference compound] it was “utilizes”. As for `C[C@H]1O[C@H](OP(=O)([O-])[O-])[C@H](O)[C@@H](O)[C@@H]1O.[Na+].[Na+]` [compound 12, Disodium 6-deoxy-α-D-glucopyranosyl Phosphate], the “activity as Ep substrate with TTP” value in assay [1] is listed as “prefers”.

With `O=P([O-])([O-])O[C@H]1O[C@H](CO)C[C@H](O)[C@H]1O.[Na+].[Na+]` [compound 20, Disodium 4-deoxy-α-D-glucopyranosyl Phosphate], the “activity as Ep substrate with TTP” value in assay [1] is recorded as “prefers”. With `O=P([O-])([O-])O[C@H]1O[C@H](CO)[C@@H](O)C[C@H]1O.[Na+].[Na+]` [compound 28, Disodium 3-deoxy-α-D-glucopyranosyl Phosphate], the “activity as Ep substrate with TTP” value in assay [1] is reported as “prefers”. As to `O=P([O-])([O-])O[C@H]1O[C@H](CO)[C@@H](O)[C@@H](O)[C@H]1O.[Na+].[Na+]` [compound 38, Disodium α-D-allopyranosyl Phosphate], in assay [1], the “activity as Ep substrate with TTP” value was “less activity”. The “acceptance / conversion by wild-type Ep” value in assay [2] is “poor conversion”. Consider `O=P([O-])([O-])O[C@@H]1C[C@@H](O)[C@H](O)[C@@H](CO)O1.[Na+].[Na+]` [compound 43, Disodium 2-deoxy-α-D-glucopyranosyl Phosphate], for which the “activity as Ep substrate with TTP” value in assay [1] is given as “prefers”. For the same compound, the “Product hydrolysis observed, TDP” value in assay [1] (FIG. 2 footnote (e), TTP reaction) is 7.6%. Besides, the “Product hydrolysis observed, UDP” value in assay [1] (FIG. 2 footnote (e), UTP reaction) is on record as 10.2%. For `O=P([O-])([O-])O[C@H]1O[C@H](CO)[C@@H](O)[C@@H](O)[C@@H]1O.[Na+].[Na+]` [compound 47, Disodium α-D-altropyranosyl Phosphate], the “activity as Ep substrate with TTP” value in assay [1] was “less activity”. Turning to `O=P([O-])([O-])O[C@H]1O[C@H](CO)[C@H](O)[C@@H](O)[C@@H]1O.[Na+].[Na+]` [compound 51, Disodium α-D-idopyranosyl Phosphate], the “activity as Ep substrate with TTP” value in assay [1] is on record as “less activity”. In the case of `O=P([O-])([O-])O[C@H]1O[C@H](CO)[C@H](O)[C@H](O)[C@@H]1O.[Na+].[Na+]` [compound 55, Disodium α-D-talopyranosyl Phosphate], the “activity as Ep substrate with TTP” value in assay [1] is “less activity”. Take `O=P(O)(O)O[C@H]1O[C@H](CO)[C@@H](O)[C@H](O)[C@@H]1O` [compound 56, α-D-mannopyranosyl phosphate, reference compound]: the “activity as Ep substrate with TTP” value in assay [1] is “prefers”. In the case of `O=P(O)(O)O[C@H]1O[C@H](CO)[C@H](O)[C@H](O)[C@H]1O` [compound 57, α-D-galactopyranosyl phosphate, reference compound], in assay [1], the “activity as Ep substrate with TTP” value is reported as “prefers”. Consider `NC[C@H]1O[C@H](OP(=O)([O-])[O-])[C@H](O)[C@@H](O)[C@@H]1O.[Na+].[Na+]` [compound 85, Disodium-(6-amino-6-deoxy-α-D-glucopyranosyl) Phosphate], for which the “product formation with dTTP” value in assay [3] is on record as “little or no effect”. The “product formation with UTP” value in assay [3] (Phosphate) is “exception; also recorded: adverse UTP-dependent effect upon yields”. As for `N[C@H]1[C@H](O)[C@@H](O)[C@@H](OP(=O)([O-])[O-])O[C@@H]1CO.[Na+].[Na+]` [compound 91, Disodium-(4-amino-4-deoxy-α-D-glucopyranosyl) Phosphate], the “product formation with dTTP” value in assay [3] was “little or no effect”. Take `CC(=O)N[C@H]1[C@H](O)[C@@H](O)[C@@H](OP(=O)([O-])[O-])O[C@@H]1CO.[Na+].[Na+]` [compound 92, Disodium-(4-acetamido-4-deoxy-α-D-glucopyranosyl) Phosphate]: in assay [3], the “product formation with dTTP” value was “less activity”. For `N[C@@H]1[C@@H](O)[C@@H](OP(=O)([O-])[O-])O[C@H](CO)[C@H]1O.[Na+].[Na+]` [compound 96, Disodium (3-amino-3-deoxy-α-D-glucopyranosyl) Phosphate], the “product formation with dTTP” value in assay [3] is listed as “little or no effect”. Turning to `CC(=O)N[C@@H]1[C@@H](O)[C@@H](OP(=O)([O-])[O-])O[C@H](CO)[C@H]1O.[Na+].[Na+]` [compound 97, Disodium-(3-acetamido-3-deoxy-α-D-glucopyranosyl) Phosphate], in assay [3], the “product formation with UTP” value is recorded as “adverse UTP-dependent effect upon yields” and the “product formation with dTTP” value was “well-tolerated”. For the compound `C[C@H]1O[C@H](OP(=O)([O-])[O-])[C@H](O)[C@@H](O)[C@@H]1N.[Na+].[Na+]` [compound 102, Disodium-(4-amino-4,6-dideoxy-α-D-glucopyranosyl) Phosphate], in assay [3], the “product formation with UTP” value is listed as “greatly diminishes” and the “product formation with dTTP” value was “does not effect”. As for `N[C@H]1[C@@H](OP(=O)(O)O)O[C@H](CO)[C@@H](O)[C@@H]1O` [compound 107, 2-amino-2-deoxy-α-D-glucopyranosyl phosphate, reference compound], the “product formation with dTTP” value in assay [3] is recorded as “little or no effect”. For “Ethyl 2,3,4,6-tetra-O-benzyl-1-thio-β-D-gulopyranoside [compound 31]”, the “activity as Ep substrate with TTP” value in assay [1] is reported as “less activity”.
